Experimental data: the NIST ThermoML archive (doi:10.1021/acs.jced.5b00989)
Numbers after ± are expanded uncertainties.

Test: molar heat capacity at constant pressure; xn = mol fraction of the nth substance listed
Conditions: 100 kPa, Liquid, Small sample (50 mg) DSC

C[P+](c1ccccc1)(c1ccccc1)c1ccccc1.[Br-] [methyltriphenylphosphonium bromide] + OCCO
x1 = 0.2
Conditions	molar heat capacity at constant pressure [J/K/mol]
298.15 K	237.6 ± 5.8
300.65 K	238.6 ± 5.8
303.15 K	239.4 ± 5.9
305.65 K	240.8 ± 5.9
308.15 K	241.6 ± 5.9
310.65 K	242.4 ± 5.9
313.15 K	243.4 ± 6
315.65 K	244.5 ± 6
318.15 K	245.2 ± 6
320.65 K	246.1 ± 6
323.15 K	247.2 ± 6.1
325.65 K	247.9 ± 6.1
328.15 K	248.9 ± 6.1
330.65 K	249.8 ± 6.1
333.15 K	250.8 ± 6.1
335.65 K	251.8 ± 6.2
338.15 K	252.7 ± 6.2
340.65 K	253.5 ± 6.2
343.15 K	254.3 ± 6.2
345.65 K	255 ± 6.2
348.15 K	255.5 ± 6.3
350.65 K	255 ± 6.2
353.15 K	256.7 ± 6.3

O=C(O)CC(=O)O [propanedioic acid] + CCCC[N+](CCCC)(CCCC)CCCC.[Cl-]
x2 = 0.25
Conditions	molar heat capacity at constant pressure [J/K/mol]
298.2 K	299.8 ± 7.4
300.7 K	302.6 ± 7.4
303.2 K	305.7 ± 7.5
305.7 K	309.4 ± 7.6
308.2 K	313.3 ± 7.7
310.7 K	316.9 ± 7.8
313.2 K	320.6 ± 7.9
315.7 K	323.7 ± 7.9
318.2 K	324.9 ± 8
320.7 K	328.8 ± 8.1
323.2 K	333.3 ± 8.2
325.7 K	335.9 ± 8.2
328.2 K	337.5 ± 8.3
330.7 K	339.2 ± 8.3
333.2 K	339.5 ± 8.3
335.7 K	340 ± 8.3
338.2 K	340.2 ± 8.3
340.7 K	340.6 ± 8.3
343.2 K	341.1 ± 8.4
345.7 K	341.2 ± 8.4
348.2 K	341.7 ± 8.4
350.7 K	342 ± 8.4
353.2 K	342.8 ± 8.4

O=C(O)CC(=O)O [propanedioic acid] + C[N+](C)(C)CCO.[Cl-]
x2 = 0.5
Conditions	molar heat capacity at constant pressure [J/K/mol]
298.15 K	226.9 ± 5.6
300.65 K	227.6 ± 5.6
303.15 K	228.3 ± 5.6
305.65 K	228.8 ± 5.6
308.15 K	229.4 ± 5.6
310.65 K	230.2 ± 5.6
313.15 K	230.6 ± 5.6
315.65 K	231.1 ± 5.7
318.15 K	231.7 ± 5.7
320.65 K	232.3 ± 5.7
323.15 K	232.7 ± 5.7
325.65 K	233.2 ± 5.7
328.15 K	233.8 ± 5.7
330.65 K	234.3 ± 5.7
333.15 K	234.9 ± 5.8
335.65 K	235.8 ± 5.8
338.15 K	237 ± 5.8
340.65 K	238 ± 5.8
343.15 K	238.4 ± 5.8
345.65 K	238.9 ± 5.9
348.15 K	239.5 ± 5.9
350.65 K	239.9 ± 5.9
353.15 K	240.8 ± 5.9

CCCC[N+](CCCC)(CCCC)CCCC.[Cl-] [tetrabutylammonium chloride] + NC(N)=O
x1 = 0.8
Conditions	molar heat capacity at constant pressure [J/K/mol]
308.2 K	590 ± 14
310.7 K	593 ± 14
313.2 K	598 ± 15
315.7 K	601.2 ± 15
318.2 K	602.6 ± 15
320.7 K	600.6 ± 15
323.2 K	601.5 ± 15
325.7 K	602.9 ± 15
328.2 K	601.7 ± 15
330.7 K	603 ± 15
333.2 K	604.9 ± 15
335.7 K	605.1 ± 15
338.2 K	603.2 ± 15
340.7 K	604 ± 15
343.2 K	604.4 ± 15
345.7 K	605.2 ± 15
348.2 K	604.8 ± 15
350.7 K	605.4 ± 15
353.2 K	605.9 ± 15

CCCC[N+](CCCC)(CCCC)CCCC.[Cl-] [tetrabutylammonium chloride] + OCC(O)CO
x1 = 0.17
Conditions	molar heat capacity at constant pressure [J/K/mol]
298.2 K	281.2 ± 6.9
300.7 K	282.5 ± 6.9
303.2 K	283.9 ± 7
305.7 K	285.4 ± 7
308.2 K	286.9 ± 7
310.7 K	288.1 ± 7.1
313.2 K	289.4 ± 7.1
315.7 K	290.7 ± 7.1
318.2 K	292 ± 7.2
320.7 K	293.4 ± 7.2
323.2 K	294.5 ± 7.2
325.7 K	296.1 ± 7.3
328.2 K	297.4 ± 7.3
330.7 K	298.9 ± 7.3
333.2 K	300.4 ± 7.4
335.7 K	301.9 ± 7.4
338.2 K	303.2 ± 7.4
340.7 K	304.6 ± 7.5
343.2 K	305.7 ± 7.5
345.7 K	306.9 ± 7.5
348.2 K	307.8 ± 7.5
350.7 K	308.6 ± 7.6
353.2 K	310.9 ± 7.6

CCCC[N+](CCCC)(CCCC)CCCC.[Cl-] [tetrabutylammonium chloride] + OCCO
x1 = 0.25
Conditions	molar heat capacity at constant pressure [J/K/mol]
298.2 K	288.3 ± 7.1
300.7 K	289.6 ± 7.1
303.2 K	291 ± 7.1
305.7 K	292.2 ± 7.2
308.2 K	293.2 ± 7.2
310.7 K	294.5 ± 7.2
313.2 K	295.8 ± 7.2
315.7 K	296.8 ± 7.3
318.2 K	297.9 ± 7.3
320.7 K	299.5 ± 7.3
323.2 K	300.5 ± 7.4
325.7 K	301.2 ± 7.4
328.2 K	302.4 ± 7.4
330.7 K	303.5 ± 7.4
333.2 K	304.8 ± 7.5
335.7 K	305.9 ± 7.5
338.2 K	306.9 ± 7.5
340.7 K	307.7 ± 7.5
343.2 K	308.5 ± 7.6
345.7 K	309.1 ± 7.6
348.2 K	309.6 ± 7.6
350.7 K	310.6 ± 7.6
353.2 K	312.6 ± 7.7

CCCC[N+](CCCC)(CCCC)CCCC.[Cl-] [tetrabutylammonium chloride] + OCCOCCOCCO
x1 = 0.5
Conditions	molar heat capacity at constant pressure [J/K/mol]
298.2 K	445 ± 11
300.7 K	447.8 ± 11
303.2 K	448.9 ± 11
305.7 K	450.6 ± 11
308.2 K	452.3 ± 11
310.7 K	454.2 ± 11
313.2 K	456.1 ± 11
315.7 K	457.4 ± 11
318.2 K	458.7 ± 11
320.7 K	460.2 ± 11
323.2 K	461.9 ± 11
325.7 K	463 ± 11
328.2 K	464.5 ± 11
330.7 K	466.2 ± 11
333.2 K	467.7 ± 12
335.7 K	469.2 ± 12
338.2 K	471.1 ± 12
340.7 K	472.6 ± 12
343.2 K	473.7 ± 12
345.7 K	475.2 ± 12
348.2 K	475.6 ± 12
350.7 K	476 ± 12
353.2 K	479.7 ± 12
